{
  "source": "paper PMC7226469",
  "about": "“Polyketide-Derived Secondary Metabolites from a Dothideomycetes Fungus, Pseudopalawania siamensis gen. et sp. nov., (Muyocopronales) with Antimicrobial and Cytotoxic Activities” (Biomolecules, 2020)",
  "key": {"Bacillus subtilis": {"system": "Bacillus subtilis", "test": "MIC, 96-well serial dilution", "format": "cell-based", "conditions": "strain DSM 10, starting concentration 66.7 µg/mL, control volume in brackets", "protocol": "(§1) Gentamicin, kanamycin, nystatin, and oxytetracycline were used as positive controls against tested organisms. […] Epothilone B and methanol were used as positive and negative control, respectively.\n(§2) The polyketides 1–5 were evaluated for their antimicrobial activity against selected microorganisms (Table 3) and cytotoxicity against two mammalian cell lines, HeLa cells KB3.1 and mouse fibroblast cell line L929 (Table 4). The starting concentration for antimicrobial assay and cytotoxicity assay were 66.7 and 300 µg/mL, respectively and the substances were dissolved in MeOH (1 mg/mL). […] Results were expressed as MIC or minimum inhibitory concentration (μg/mL) and IC50 or half maximal inhibitory concentration (μM) (Table 3 and Table 4)."}, "[1]": {"system": "Chromobacterium violaceum", "test": "MIC, 96-well serial dilution", "format": "cell-based", "conditions": "strain DSM 30191, starting concentration 66.7 µg/mL, control volume in brackets", "protocol": "as §1, §2"}, "Escherichia coli": {"system": "Escherichia coli", "test": "MIC, 96-well serial dilution", "format": "cell-based", "conditions": "strain DSM 1116, starting concentration 66.7 µg/mL, control volume in brackets", "protocol": "as §1, §2"}, "Micrococcus luteus": {"system": "Micrococcus luteus", "test": "MIC, 96-well serial dilution", "format": "cell-based", "conditions": "strain DSM 1790, starting concentration 66.7 µg/mL, control volume in brackets", "protocol": "as §1, §2"}, "Mucor hiemalis": {"system": "Mucor hiemalis", "test": "MIC, 96-well serial dilution", "format": "cell-based", "conditions": "strain DSM 6766; starting concentration 66.7 µg/mL; control volume in brackets", "protocol": "as §1, §2"}, "Pseudomonas aeruginosa": {"system": "Pseudomonas aeruginosa", "test": "MIC, 96-well serial dilution", "format": "cell-based", "conditions": "strain PA14; starting concentration 66.7 µg/mL; control volume in brackets", "protocol": "as §1, §2"}, "Staphylococcus aureus": {"system": "Staphylococcus aureus", "test": "MIC, 96-well serial dilution", "format": "cell-based", "conditions": "strain DSM 346, starting concentration 66.7 µg/mL, control volume in brackets", "protocol": "as §1, §2"}, "HeLa cells KB3.1": {"system": "HeLa cells KB3.1", "test": "In vitro cytotoxicity, MTT assay", "format": "cell-based", "conditions": "Homo sapiens", "protocol": "as §1, §2"}, "Mouse fibroblast L929": {"system": "Mouse fibroblast L929", "test": "In vitro cytotoxicity, MTT assay", "format": "cell-based", "protocol": "as §1, §2"}, "[2]": {"system": "various fungal and bacterial strains", "test": "Antimicrobial activity against selected microorganisms (summary statements)", "format": "cell-based", "conditions": "fungi and bacteria of Table 3", "protocol": "as §1, §2"}, "[3]": {"system": "HeLa cells KB3.1 and mouse fibroblast cell line L929", "test": "Cytotoxicity against two mammalian cell lines (summary statements)", "conditions": "HeLa KB3.1 and L929", "protocol": "as §1, §2"}, "Mycobacterium smegmatis": {"system": "Mycobacterium smegmatis", "test": "MIC, 96-well serial dilution", "format": "cell-based", "conditions": "strain ATCC 700084; starting concentration 66.7 µg/mL; control volume in brackets", "protocol": "as §1, §2"}, "Candida albicans": {"system": "Candida albicans", "test": "MIC, 96-well serial dilution", "format": "cell-based", "conditions": "strain DSM 1665; starting concentration 66.7 µg/mL; control volume in brackets", "protocol": "as §1, §2"}, "Cryptococcus neoformans": {"system": "Cryptococcus neoformans", "test": "MIC, 96-well serial dilution", "format": "cell-based", "conditions": "strain DSM 15466; starting concentration 66.7 µg/mL; control volume in brackets", "protocol": "as §1, §2"}, "Pichia anomala": {"system": "Pichia anomala", "test": "MIC, 96-well serial dilution", "format": "cell-based", "conditions": "strain DSM 6766; starting concentration 66.7 µg/mL; control volume in brackets", "protocol": "as §1, §2"}, "Rhodoturula glutinis": {"system": "Rhodoturula glutinis", "test": "MIC, 96-well serial dilution", "format": "cell-based", "conditions": "strain DSM 10134; starting concentration 66.7 µg/mL; control volume in brackets", "protocol": "as §1, §2"}, "[4]": {"system": "Schizosaccharomyces pombe", "test": "MIC, 96-well serial dilution", "format": "cell-based", "conditions": "strain DSM 70572; starting concentration 66.7 µg/mL; control volume in brackets", "protocol": "as §1, §2"}},
  "note": "Structures can show the parent of a compound that is named as a salt. Where two headings read alike, the source gives them in different places.",
  "data": [
    {"smiles": "Cc1ccc(C(=O)c2c(O)cccc2C(=O)O)c(O)c1", "note": "[Compound 5, cephalanone F]", "values": [
      {"measurement": "Minimum Inhibitory Concentration (MIC)", "setting": "Bacillus subtilis", "value": "-"},
      {"measurement": "Minimum Inhibitory Concentration (MIC)", "setting": "[1]", "value": "-"},
      {"measurement": "Minimum Inhibitory Concentration (MIC)", "setting": "Escherichia coli", "value": "-"},
      {"measurement": "Minimum Inhibitory Concentration (MIC)", "setting": "Micrococcus luteus", "value": "-"},
      {"measurement": "Minimum Inhibitory Concentration (MIC)", "setting": "Mucor hiemalis", "value": "-"},
      {"measurement": "Minimum Inhibitory Concentration (MIC)", "setting": "Pseudomonas aeruginosa", "value": "-"},
      {"measurement": "Minimum Inhibitory Concentration (MIC)", "setting": "Staphylococcus aureus", "value": "-"},
      {"measurement": "IC50", "setting": "HeLa cells KB3.1; MTT assay, HeLa cells KB3.1, starting concentration 66 μg/mL, read-out: IC50", "value": "> 200000", "unit": "nM"},
      {"measurement": "IC50", "setting": "Mouse fibroblast L929; MTT assay, mouse fibroblast L929, starting concentration 66 μg/mL, read-out: IC50", "value": "> 103000", "unit": "nM"},
      {"measurement": "Antimicrobial activity (in words)", "setting": "[2]", "value": "neither antimicrobial nor cytotoxic activities"},
      {"measurement": "Cytotoxic activity (in words)", "setting": "[3]", "value": "neither antimicrobial nor cytotoxic activities"}
    ]},
    {"smiles": "C/C(=C\\c1csc(C)n1)[C@@H]1C[C@@H]2O[C@]2(C)CCC[C@H](C)[C@H](O)[C@@H](C)C(=O)C(C)(C)[C@@H](O)CC(=O)O1", "note": "[Epothilone B, reference compound]", "values": [
      {"measurement": "IC50", "setting": "HeLa cells KB3.1", "value": 0.089, "unit": "nM"},
      {"measurement": "IC50", "setting": "Mouse fibroblast L929; Mus musculus, L929", "value": 1.8, "unit": "nM"}
    ]},
    {"smiles": "NC[C@H]1O[C@H](O[C@H]2[C@H](O)[C@@H](O[C@H]3O[C@H](CO)[C@@H](O)[C@H](N)[C@H]3O)[C@H](N)C[C@@H]2N)[C@H](O)[C@@H](O)[C@@H]1O", "note": "[K, kanamycin, reference compound]", "values": [
      {"measurement": "Minimum Inhibitory Concentration (MIC)", "setting": "Mycobacterium smegmatis", "value": "3.3 (2 µL K) μg/mL"}
    ]},
    {"smiles": "C[C@@H]1[C@H](O)[C@@H](C)/C=C/C=C/CC/C=C/C=C/C=C/C=C/C(O[C@H]2O[C@H](C)[C@@H](O)[C@H](N)[C@@H]2O)CC2O[C@](O)(CC(O)C(O)CCC(O)CC(O)CC(O)CC(=O)O[C@H]1C)CC(O)C2C(=O)O", "note": "(stereo partly drawn) [N, nystatin]", "values": [
      {"measurement": "Minimum Inhibitory Concentration (MIC)", "setting": "Candida albicans", "value": "66.7 (20 µL N) μg/mL"},
      {"measurement": "Minimum Inhibitory Concentration (MIC)", "setting": "Cryptococcus neoformans", "value": "66.7 (20 µL N) μg/mL"},
      {"measurement": "Minimum Inhibitory Concentration (MIC)", "setting": "Pichia anomala", "value": "66.7 (20 µL N) μg/mL"},
      {"measurement": "Minimum Inhibitory Concentration (MIC)", "setting": "Rhodoturula glutinis", "value": "16.7 (20 µL N) μg/mL"},
      {"measurement": "Minimum Inhibitory Concentration (MIC)", "setting": "[4]", "value": "33.3 (20 µL N) μg/mL"}
    ]},
    {"smiles": "CN(C)[C@@H]1C(O)=C(C(N)=O)C(=O)[C@@]2(O)C(O)=C3C(=O)c4c(O)cccc4[C@@](C)(O)[C@H]3[C@H](O)[C@@H]12", "note": "[O, oxytetracycline hydrochloride, reference compound]", "values": [
      {"measurement": "MIC", "setting": "Bacillus subtilis; Bacillus subtilis, DSM10, read-out: Minimum Inhibitory Concentration (MIC)", "value": 8.3, "unit": "µg/mL"},
      {"measurement": "MIC", "setting": "[1]; Chromobacterium violaceum, DSM30191, read-out: Minimum Inhibitory Concentration (MIC)", "value": 1.7, "unit": "µg/mL"},
      {"measurement": "MIC", "setting": "Escherichia coli; Escherichia coli, DSM1116, read-out: Minimum Inhibitory Concentration (MIC)", "value": 3.3, "unit": "µg/mL"},
      {"measurement": "MIC", "setting": "Micrococcus luteus; Micrococcus luteus, DSM1790, read-out: Minimum Inhibitory Concentration (MIC)", "value": 0.4, "unit": "µg/mL"},
      {"measurement": "MIC", "setting": "Staphylococcus aureus; Staphylococcus aureus, DSM346, read-out: Minimum Inhibitory Concentration (MIC)", "value": 0.2, "unit": "µg/mL"}
    ]}
  ]
}
